Key:
[1] = target: T1, caspase-6 (Homo sapiens, UniProt P55212); test: Blots of full-length huntingtin (23Q & 148Q) treated with caspase-6 plus inhibitor; assay type: biochemical; conditions: for Proteolysis of Htt at amino acid 586 (caspase-6 site): 1-100 nM; for Inhibition of caspase-6 cleavage of full-length huntingtin (blot): 23Q & 148Q, at 1.0 μM and 10 μM; for Blocking the cleavage of Htt at amino acid 586 mediated by caspase-6: conclusion
T1 construct: gift: Guy Salvesen's laboratory, Burnham Institute (La Jolla, Calif.)
T1 sequence (P55212 24-179 limits assumed): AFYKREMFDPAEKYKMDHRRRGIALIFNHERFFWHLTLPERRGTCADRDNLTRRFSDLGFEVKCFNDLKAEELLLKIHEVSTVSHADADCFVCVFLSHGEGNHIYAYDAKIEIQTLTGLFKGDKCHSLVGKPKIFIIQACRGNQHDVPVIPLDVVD
T1 sequence (P55212 194-293 limits assumed): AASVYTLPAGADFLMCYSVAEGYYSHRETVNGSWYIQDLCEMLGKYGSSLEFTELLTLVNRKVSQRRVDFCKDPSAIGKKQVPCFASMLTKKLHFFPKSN

[2] = target: T2, caspase-9 (Homo sapiens, UniProt P55211); test: Irreversible inhibitor kinetic assay (progress curve), caspase-9, substrate Ac-LEHD-AFC; assay type: biochemical; conditions: casp-9; duplicate, SD included
T2 construct: gift: Guy Salvesen's laboratory, Burnham Institute (La Jolla, Calif.)
T2 sequence (P55211 1-315 limits assumed): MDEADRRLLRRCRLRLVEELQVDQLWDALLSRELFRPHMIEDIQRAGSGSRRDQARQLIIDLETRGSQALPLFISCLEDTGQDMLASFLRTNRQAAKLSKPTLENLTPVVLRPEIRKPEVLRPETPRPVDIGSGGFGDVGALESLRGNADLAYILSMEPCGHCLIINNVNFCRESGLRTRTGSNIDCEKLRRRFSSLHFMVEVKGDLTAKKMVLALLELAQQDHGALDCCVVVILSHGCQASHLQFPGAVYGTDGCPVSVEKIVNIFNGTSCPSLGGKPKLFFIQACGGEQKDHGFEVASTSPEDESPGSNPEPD
T2 sequence (P55211 331-416 limits assumed): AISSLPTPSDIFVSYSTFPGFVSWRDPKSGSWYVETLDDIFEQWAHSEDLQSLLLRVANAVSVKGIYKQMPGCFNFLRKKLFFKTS
Excerpt: Caspases-3, -6, -7, -8, and -9 were provided by Guy Salvesen's laboratory at the Burnham Institute (La Jolla, Calif.). Caspase-1 was purchased from EMD Biosciences (San Diego, Calif.) and Caspase-2 was purchased from Biomol International (Plymouth Meeting, Pa.). Caspase substrates Ac-DEVD-AMC, Ac-VDVAD-AFC, and Ac-LEHD-AFC were purchased from EMD Biosciences (San Diego, Calif.) and Ac-VDVAD-AMC was purchased from Biomol International (Plymouth Meeting, Pa.). The proteolytic cleavage of N-acyl aminocoumarins by caspases was conducted in Dynatech Microfluor fluorescence 96-well microtiter plates, and readings were taken on a Molecular Devices Spectra Max Gemini XS instrument. The excitation wavelength was 370 nm and the emission wavelength was 455 nm for AMCA substrates, the excitation wavelength was 355 nm and the emission wavelength was 450 nm for peptidyl AMC substrates, and the excitation wavelength was 430 nm and the emission wavelength was 535 nm for peptidyl AFC substrates.
The kinact/Ki for inhibitors were determined under pseudo-first order conditions using the progress curve method (Eckici et al. (2006) J. Med. Chem., 49: 5728-5749; Bieth (1995) Meth. Enzymol., 248: 59-84). Assay wells contained a mixture of inhibitor and AMC or AFC substrate in buffer. Aliquots of caspase were added to each well to initiate the assay. Hydrolysis of the AMC or AFC substrate was monitored fluorometrically for 45 min. To determine the inhibition parameters, time points for which the control ([I]=0) was linear were used. For each inhibitor, a kobs was calculated for at least four different concentrations of inhibitors via a nonlinear regression of the data according to the equation P=(vi/kobs)[1−exp(−kobst) (where product formation=P, […], and the first-order rate constant=kobs). If kobs varied linearly with [I], then the association constant kass was determined by linear regression analysis using kobs=(kass[I])/(1+[S]/Km) where [S] is the concentration of the substrate. […] Inhibition was measured in duplicate and the average of is reported. […]

[3] = test system: Hdh111Q cells; test: Evaluation of inhibitors in Hdh111Q cells (toxicity, caspase activation); assay type: cell-based; conditions: for Hdh111Q mediated toxicity: 1-100 nM; for Caspase activation in Hdh111Q cells: FIG. 18

| Proteolysis of Htt at amino acid 586 (caspase-6 site) [1] | Inhibition of caspase-6 cleavage of full-length huntingtin (blot) [1] | Blocking the cleavage of Htt at amino acid 586 mediated by caspase-6 [1] | kinact/Ki [2] | SMILES | Hdh111Q mediated toxicity [3] | Caspase activation in Hdh111Q cells [3] | Rank of potency in blocking caspase activation in Hdh111Q cells ([3]; among MJL-001i, MJL-002i, MJL-003i) |
| --- | --- | --- | --- | --- | --- | --- | --- |
| blocked | inhibition | affective at blocking | 18,250 ± 4,050 s^−1/M^−1 | C[C@@](NS(=O)(=O)Cc1ccccc1)(c1cn([C@@H](CC(=O)O)C(=O)COc2c(F)c(F)cc(F)c2F)nn1)C1CCCCC1 [MJL-001i] | suppressed | block | – |
| blocked | inhibition | affective at blocking | 7,550 ± 1,650 s^−1/M^−1 | C[C@@](NC(=O)CCCC(=O)O)(c1cn([C@@H](CC(=O)O)C(=O)COc2c(F)c(F)cc(F)c2F)nn1)C1CCCCC1 [MJL-002i] | suppressed | block | – |
| blocked | inhibition | affective at blocking | 28,100 ± 2,500 s^−1/M^−1 | C[C@@](NC(=O)Cc1ccccc1)(c1cn([C@@H](CC(=O)O)C(=O)COc2c(F)c(F)cc(F)c2F)nn1)C1CCCCC1 [MJL-003i] | suppressed | block | most potent |
